From patent US20250179000A1 (Sanford Burnham Prebys Medical Discovery Institute, priority 2021, published 2025)

Legend:
[1] = test system: reserpine-treated rat; conditions: cited from earlier work
[2] = test system: SOD1G93A mice; conditions: cited from earlier work
[3] = test system: R6/2 mice; conditions: cited from earlier work
[4] = test system: nigro-striatal damage induced by 1-methyl-4-phenyl-1,2,3,6-tetrahydropyridine in mice; conditions: acute or repeated 0.25 or 3 mg/kg i.p.; tyrosine hydroxylase-positive neuron count; cited from earlier work
[5] = test system: cultured spinal cord astrocytes; conditions: wild-type and mGlu2 knockout mice, not mGlu3 knockout; cited from earlier work
[6] = test system: GDNF mRNA and protein levels in the mouse brain; conditions: cited from earlier work
[7] = test system: spinal cord GDNF levels; conditions: cited from earlier work
[8] = test system: SMI-32+ motor neurons; conditions: abrogated by anti-GDNF antibodies; cited from earlier work
[9] = test system: 6-OHDA lesioned nigrostriatal tract; conditions: cited from earlier work
[10] = biological target: Human mGlu3 (Homo sapiens, UniProt Q14832); test: mGlu receptor in vitro assay, human mGlu3; assay type: cell-based
Human mGlu3, sequence (Q14832 23-879): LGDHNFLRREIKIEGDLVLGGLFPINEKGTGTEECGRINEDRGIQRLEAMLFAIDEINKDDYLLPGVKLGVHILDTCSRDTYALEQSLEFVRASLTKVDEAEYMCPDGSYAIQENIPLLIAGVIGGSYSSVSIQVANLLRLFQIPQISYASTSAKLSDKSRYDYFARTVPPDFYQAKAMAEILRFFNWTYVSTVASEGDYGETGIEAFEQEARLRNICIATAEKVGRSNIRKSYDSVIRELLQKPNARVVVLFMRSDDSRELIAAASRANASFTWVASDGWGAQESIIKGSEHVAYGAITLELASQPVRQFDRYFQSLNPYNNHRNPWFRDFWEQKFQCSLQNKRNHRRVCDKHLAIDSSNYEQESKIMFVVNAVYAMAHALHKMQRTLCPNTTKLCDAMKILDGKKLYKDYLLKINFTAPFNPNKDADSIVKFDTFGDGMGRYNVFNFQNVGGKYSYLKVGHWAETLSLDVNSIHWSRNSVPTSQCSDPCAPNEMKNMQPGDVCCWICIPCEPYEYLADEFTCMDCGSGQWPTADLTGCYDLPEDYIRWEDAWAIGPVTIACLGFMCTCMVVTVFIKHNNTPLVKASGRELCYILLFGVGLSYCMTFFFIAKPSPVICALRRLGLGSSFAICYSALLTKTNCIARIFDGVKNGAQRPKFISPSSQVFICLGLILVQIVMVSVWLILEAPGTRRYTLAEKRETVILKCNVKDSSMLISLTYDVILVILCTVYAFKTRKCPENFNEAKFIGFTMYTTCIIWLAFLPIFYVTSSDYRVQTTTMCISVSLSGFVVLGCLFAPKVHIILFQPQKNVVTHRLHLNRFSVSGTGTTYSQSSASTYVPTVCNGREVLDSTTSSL

[11] = biological target: T1, Rat mGlu3 (Rattus norvegicus, UniProt P31422); test: mGlu receptor in vitro assay (thallium flux through GIRK channels / calcium assay), rat mGlu3; assay type: cell-based; conditions: PAM potency with EC20 glutamate
T1 construct: expressed in transfected cells; host or cells: HEK-293 co-expressing GIRK channels
T1 sequence (P31422 23-879): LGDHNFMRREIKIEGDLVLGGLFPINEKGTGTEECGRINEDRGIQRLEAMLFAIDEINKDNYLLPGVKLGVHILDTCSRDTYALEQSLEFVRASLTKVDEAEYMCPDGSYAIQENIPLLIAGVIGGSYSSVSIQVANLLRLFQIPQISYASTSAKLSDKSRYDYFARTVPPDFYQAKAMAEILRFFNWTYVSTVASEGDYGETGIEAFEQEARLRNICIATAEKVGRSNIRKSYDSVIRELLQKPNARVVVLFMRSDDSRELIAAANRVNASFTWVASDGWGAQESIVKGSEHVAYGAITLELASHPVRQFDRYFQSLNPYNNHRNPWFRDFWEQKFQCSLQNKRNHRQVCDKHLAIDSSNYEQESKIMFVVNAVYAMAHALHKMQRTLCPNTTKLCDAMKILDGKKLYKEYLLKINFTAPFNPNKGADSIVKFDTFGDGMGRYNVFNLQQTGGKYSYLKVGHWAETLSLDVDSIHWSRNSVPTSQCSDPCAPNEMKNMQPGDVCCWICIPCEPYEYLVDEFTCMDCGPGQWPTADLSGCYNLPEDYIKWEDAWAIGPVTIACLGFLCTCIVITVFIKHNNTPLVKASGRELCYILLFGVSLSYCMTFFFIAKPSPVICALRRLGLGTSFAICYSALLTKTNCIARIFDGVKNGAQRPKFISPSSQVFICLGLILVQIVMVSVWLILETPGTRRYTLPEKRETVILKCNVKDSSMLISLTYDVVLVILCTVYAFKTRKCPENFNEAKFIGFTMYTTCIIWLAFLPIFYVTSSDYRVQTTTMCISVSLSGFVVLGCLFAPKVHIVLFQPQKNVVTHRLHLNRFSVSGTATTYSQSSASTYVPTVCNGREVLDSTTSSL
Method in brief: (§1)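 HEK-293 cells co-expressing rat mGlu2 or mGlu3 and GIRK, dye-loaded with FluoZin2-AM, compound added about 2.5 min before thallium buffer with EC20 glutamate; potency from the 5-15 s fluorescence slope, 10-point 4-parameter fit. Calcium assay at mGlu3 used TREx293 mGlu3 Gα15 cells induced with tetracycline 20 ng/mL for 20 h.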

[12] = biological target: Human mGlu2 (Homo sapiens, UniProt Q14416); test: mGlu receptor in vitro assay, human mGlu2; assay type: cell-based
Human mGlu2, sequence (Q14416 19-872): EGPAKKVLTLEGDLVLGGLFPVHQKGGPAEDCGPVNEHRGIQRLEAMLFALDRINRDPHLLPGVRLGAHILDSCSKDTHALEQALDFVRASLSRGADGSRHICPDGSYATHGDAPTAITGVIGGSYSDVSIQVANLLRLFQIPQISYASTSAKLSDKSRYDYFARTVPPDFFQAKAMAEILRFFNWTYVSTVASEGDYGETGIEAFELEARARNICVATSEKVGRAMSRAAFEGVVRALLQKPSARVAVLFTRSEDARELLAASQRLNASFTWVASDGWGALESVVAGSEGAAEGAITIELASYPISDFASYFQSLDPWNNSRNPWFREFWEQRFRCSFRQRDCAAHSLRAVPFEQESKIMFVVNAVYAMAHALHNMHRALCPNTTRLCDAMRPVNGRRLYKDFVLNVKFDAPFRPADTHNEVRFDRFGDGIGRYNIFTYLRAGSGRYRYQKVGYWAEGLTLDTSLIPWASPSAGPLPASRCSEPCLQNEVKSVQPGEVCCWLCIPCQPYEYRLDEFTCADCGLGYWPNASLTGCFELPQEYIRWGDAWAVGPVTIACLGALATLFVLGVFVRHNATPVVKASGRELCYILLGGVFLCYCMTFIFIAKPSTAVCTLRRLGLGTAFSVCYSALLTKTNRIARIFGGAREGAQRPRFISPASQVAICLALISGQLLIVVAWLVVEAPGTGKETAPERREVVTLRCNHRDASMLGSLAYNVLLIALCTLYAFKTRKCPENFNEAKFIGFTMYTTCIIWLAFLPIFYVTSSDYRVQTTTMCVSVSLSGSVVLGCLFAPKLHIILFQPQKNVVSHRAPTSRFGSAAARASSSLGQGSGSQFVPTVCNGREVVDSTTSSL

[13] = biological target: T2, Rat mGlu2 (Rattus norvegicus, UniProt P31421); test: mGlu receptor in vitro assay, thallium flux through GIRK channels, rat mGlu2; assay type: cell-based; conditions: PAM potency with EC20 glutamate
T2 construct: expressed in transfected cells; host or cells: HEK-293 co-expressing GIRK channels
T2 sequence (P31421 19-872): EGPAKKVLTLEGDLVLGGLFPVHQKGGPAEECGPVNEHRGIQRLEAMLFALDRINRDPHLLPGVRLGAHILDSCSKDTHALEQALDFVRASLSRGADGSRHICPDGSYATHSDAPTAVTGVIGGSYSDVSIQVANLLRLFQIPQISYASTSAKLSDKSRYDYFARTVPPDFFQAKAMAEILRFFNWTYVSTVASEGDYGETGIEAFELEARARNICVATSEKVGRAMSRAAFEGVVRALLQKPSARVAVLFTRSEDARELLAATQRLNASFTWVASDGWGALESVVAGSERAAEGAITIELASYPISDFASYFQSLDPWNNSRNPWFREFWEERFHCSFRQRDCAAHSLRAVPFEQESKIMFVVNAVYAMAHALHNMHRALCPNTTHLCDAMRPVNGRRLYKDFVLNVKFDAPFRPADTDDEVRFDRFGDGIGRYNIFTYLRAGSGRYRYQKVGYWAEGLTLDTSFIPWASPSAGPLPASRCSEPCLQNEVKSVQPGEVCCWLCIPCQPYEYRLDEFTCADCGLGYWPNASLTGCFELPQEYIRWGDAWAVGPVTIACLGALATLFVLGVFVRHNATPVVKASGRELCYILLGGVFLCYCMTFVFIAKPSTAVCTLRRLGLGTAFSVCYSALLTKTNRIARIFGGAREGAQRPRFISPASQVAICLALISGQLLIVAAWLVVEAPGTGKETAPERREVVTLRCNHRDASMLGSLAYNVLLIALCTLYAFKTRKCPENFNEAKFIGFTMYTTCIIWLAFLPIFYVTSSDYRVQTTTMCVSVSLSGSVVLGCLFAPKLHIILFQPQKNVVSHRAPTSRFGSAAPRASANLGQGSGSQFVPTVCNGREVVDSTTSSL
Method in brief: as §1

[14] = test system: cocaine craving; conditions: preliminary results in humans; cited from earlier work
[15] = test system: cocaine-seeking in rats; conditions: systemic injections; cited from earlier work

Row | Compound | EC50 [10] [nM] | EC50 [11] [nM] | EC50 [12] [nM] | EC50 [13] [nM] | other results
1 | N[C@@]1(C(=O)O)CO[C@H]2[C@H](C(=O)O)[C@H]21 [LY379268] | – | – | – | – | locomotor activity ([1]; intracerebroventricular 1, 5, 10, 20 nmol, reserpine 5 mg/kg ip): dose-dependent increase in locomotor activity; reserpine-induced akinesia ([1]; systemic 0.1, 1, 10 mg/kg ip): did not reverse reserpine-induced akinesia; neurological disability ([2]; continuous treatment 1 or 5 mg/kg/day): beneficial effect on neurological disability; spinal cord motor neurons (SMI-32+ cell count) ([2]; day 40 of treatment): rescued spinal cordmotor neurons; striatal neuron loss ([3]; 20 mg/kg daily s.c., at 10 weeks): rescue of a 15-20% striatal neuron loss; motor function ([3]; 20 mg/kg daily s.c., distance traveled, speed, pauses, straight-line locomotion): normalization of motor function; phenotype in R6/2 mice ([3]; 20 mg/kg daily subcutaneous, beginning at 4 weeks): dramatically improves the phenotype; protection against nigro-striatal damage [4]: highly protective; GDNF levels in astrocytes [5]: enhanced GDNF levels; GDNF mRNA and protein levels ([6]; 0.25-3 mg/kg i.p.): increased; time of peak GDNF mRNA levels ([6]; after injection): 3 h; tolerance to GDNF-enhancing effect ([7]; 28 days s.c. osmotic minipumps, 0.5-5 mg/day): No tolerance developed; spinal cord GDNF levels ([7]; acute 0.5, 1 or 5 mg/kg i.p., wild-type and mGlu2 knockout mice, not mGlu3 knockout): enhanced spinal cord GDNF levels; expression of glutamate transporter GLT-1 in spinal cord ([7]; continuous infusion): enhanced the expression; protection of motor neurons against excitotoxic death [8]: protected; protection against nigral infusion of 6-OHDA ([9]; 10 mg/kg/day ip, 7 days): some protection; protection against striatal infusion of 6-OHDA ([9]; 10 mg/kg/day ip, 21 days, striatum): significant protection in the striatum; rotational behaviour ([9]; systemic 0.1, 1, 10 mg/kg ip, 1 month after unilateral 6-OHDA lesion): failed to effect rotational behaviour
2 | COc1cc(F)c(C(=O)O)cc1-c1cccc(COc2ccc(C(=O)CC(C)(C)C)c(O)c2C)c1 [Example 164, 3′-((4-(3,3-dimethylbutanoyl)-3-hydroxy-2-methylphenoxy)methyl)-4-fluoro-6-methoxy-[1,1′-biphenyl]-3-carboxylic acid] | 242 | 559 | 39 | 110 | –
3 | CCCC(=O)c1ccc(OCc2cnc(-c3cccc(C(=O)O)c3OC)cn2)c(C)c1O [compound 103, 3-{5-[(4-Butanoyl-3-hydroxy-2-methylphenoxy)methyl]pyrazin-2-yl}-2-methoxybenzoic acid] | 375 | 481 | 54 | 198 | –
4 | COc1ccc(C(=O)O)cc1OCCSCCOc1ccc(C(=O)CC(C)(C)C)c(O)c1C [Example 12, 3-(2-{2-[4-(3,3-Dimethylbutanoyl)-3-hydroxy-2-methylphenoxy]ethylthio}ethoxy)-4-methoxybenzoic acid] | 15 | 70 | 5 | 23 | –
5 | COc1ccc(C(=O)O)cc1OCCNCCOc1ccc(C(=O)CC(C)(C)C)c(O)c1C [Example 26, 3-[2-({2-[4-(3,3-Dimethylbutanoyl)-3-hydroxy-2-methylphenoxy]ethyl}amino)ethoxy]-4-methoxybenzoic acid] | 1620 | 4090 | 156 | 2160 | –
6 | CC(=O)N[C@@H](CS)C(=O)O [N-acetylcysteine] | – | – | – | – | cocaine craving [14]: attenuated cocaine craving; reinstatement of cocaine-seeking [15]: attenuated
7 | CCCC(=O)c1ccc(OCCOCCNc2cccc(C(=O)O)c2)c(C)c1O [Example 9, 3-({2-[2-(4-Butanoyl-3-hydroxy-2-methylphenoxy)ethoxy]ethyl}amino)benzoic acid] | > 10000 | > 10000 | 50 | 73 | –
8 | COc1ccc(C(=O)O)cc1OCC#CCOc1ccc(C(=O)CC(C)(C)C)c(O)c1C [Example 10, 3-{4-[4-(3,3-Dimethylbutanoyl)-3-hydroxy-2-methylphenoxy]but-2-ynyloxy}-4-methoxybenzoic acid] | 16 | 39 | 15 | 92 | –
9 | CCCC(=O)c1ccc(OCCOCCOc2ccc(C(=O)O)c(Cl)c2)c(C)c1O [Example 41, 4-{2-[2-(4-Butanoyl-3-hydroxy-2-methylphenoxy)ethoxy]ethoxy}-2-chlorobenzoic acid] | 886 | 1000 | 8 | 15 | –
10 | COc1ccc(C(=O)O)cc1OCCC(C)COc1ccc(C(=O)CC(C)(C)C)c(O)c1C (centres unmarked) [Example 33, 3-{4-[4-(3,3-Dimethylbutanoyl)-3-hydroxy-2-methylphenoxy]-3-methylbutoxy}-4-methoxybenzoic acid] | 195 | 197 | 132 | 217 | –
11 | [2H]C([2H])(CCCC([2H])([2H])Oc1ccc(C(=O)CCC)c(O)c1C)Oc1ccc(C(=O)O)cc1OC [Example 51, 4-((5-(4-Butyryl-3-hydroxy-2-methylphenoxy)pentyl-1,1,5,5-d4)oxy)-3-methoxybenzoic acid] | > 30000 | 2380 | 9 | 22 | –
12 | Cc1c(OCC#CCOc2ccc(C(=O)CC(C)(C)C)c(O)c2C)cccc1C(=O)O [Example 22, 3-{4-[4-(3,3-Dimethylbutanoyl)-3-hydroxy-2-methylphenoxy]but-2-ynyloxy}-2-methylbenzoic acid] | 39 | 20 | 4 | 16 | –
13 | Cc1c(OCCCCSc2cccc(C(=O)O)c2)ccc(C(=O)CC(C)C)c1O [compound 81, 3-((4-(3-Hydroxy-2-methyl-4-(3-methylbutanoyl)phenoxy)butyl)thio)benzoic acid] | 966 | 1490 | 163 | 326 | –
14 | COc1ccc(C(=O)O)cc1OCCCCSc1ccc(C(=O)CC(C)(C)C)c(O)c1C [compound 84, 3-{4-[4-(3,3-Dimethylbutanoyl)-3-hydroxy-2-methylphenylthio]butoxy}-4-methoxybenzoic acid] | 340 | 953 | 126 | 382 | –
